Results as given in ChEMBL document CHEMBL1201861, “Genomics of Drug Sensitity in Cancer screening data, Wellcome Trust Sanger Institute”.

Assays:
Assay in all cases: cells
Conditions in all cases: Homo sapiens
COLO-792 = type: functional, cell-based
Description: SANGER: Inhibition of human COLO-792 cell growth in a cell viability assay.

Ca9-22 = type: functional, cell-based;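 further: growth inhibition of Ca9-22 cells, read out with a cell viability assay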
Description: SANGER: Inhibition of human Ca9-22 cell growth in a cell viability assay.

DOK = type: functional, cell-based;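 further: cell viability assay read-out, values reflect inhibition of cell growth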
Description: SANGER: Inhibition of human DOK cell growth in a cell viability assay.

DoTc2-4510 = type: functional, cell-based
G-401 = type: functional, cell-based
Description: SANGER: Inhibition of human G-401 cell growth in a cell viability assay.

HCC1395 = type: functional, cell-based;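 further: growth inhibition of HCC1395 cells, read out by a cell viability assay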
Description: SANGER: Inhibition of human HCC1395 cell growth in a cell viability assay.

HCC1937 = type: functional, cell-based;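 further: growth inhibition measured with a cell viability read-out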
Description: SANGER: Inhibition of human HCC1937 cell growth in a cell viability assay.

HMV-2 cell line = type: functional, cell-based;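 further: growth inhibition of HMV-II cells, read out with a cell viability assay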
Description: SANGER: Inhibition of human HMV-II cell growth in a cell viability assay.

HSC-2 = type: functional, cell-based;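 further: growth inhibition of human HSC-2 cells, read out by a cell viability assay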
Description: SANGER: Inhibition of human HSC-2 cell growth in a cell viability assay.

HSC-3 = type: functional, cell-based
Description: SANGER: Inhibition of human HSC-3 cell growth in a cell viability assay.

HT-29 = type: functional, cell-based;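 further: growth inhibition of human HT-29 cells, read out by a cell viability assay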
Description: SANGER: Inhibition of human HT-29 cell growth in a cell viability assay.

IGR-1 = type: functional, cell-based;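 further: growth inhibition of human IGR-1 cells, read out with a cell viability assay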
Description: SANGER: Inhibition of human IGR-1 cell growth in a cell viability assay.

JEG-3 = type: functional, cell-based;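 further: growth inhibition of human JEG-3 cells, read out with a cell viability assay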
Description: SANGER: Inhibition of human JEG-3 cell growth in a cell viability assay.

KYSE-150 cell line = type: functional, cell-based;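 further: growth inhibition of human KYSE-150 cells, read out with a cell viability assay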
Description: SANGER: Inhibition of human KYSE-150 cell growth in a cell viability assay.

MDA-MB-453 = type: functional, cell-based
Description: SANGER: Inhibition of human MDA-MB-453 cell growth in a cell viability assay.

MKN-1 = type: functional, cell-based;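 further: growth inhibition of human MKN1 cells, read out by a cell viability measurement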
Description: SANGER: Inhibition of human MKN1 cell growth in a cell viability assay.

MeWo = type: functional, cell-based;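 further: growth inhibition of MeWo cells, determined by a cell viability readout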
Description: SANGER: Inhibition of human Mewo cell growth in a cell viability assay.

NCI-H1651 = type: functional, cell-based;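 further: Read-out is a cell viability assay, with IC50 expressing inhibition of NCI-H1651 cell growth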
Description: SANGER: Inhibition of human NCI-H1651 cell growth in a cell viability assay.

NCI-H1693 = type: functional, cell-based;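 further: growth inhibition of the human cell line, read out with a cell viability assay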
Description: SANGER: Inhibition of human NCI-H1693 cell growth in a cell viability assay.

NCI-H1993 = type: functional, cell-based;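 further: growth inhibition of the cancer cell line, assessed with a cell viability assay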
Description: SANGER: Inhibition of human NCI-H1993 cell growth in a cell viability assay.

NCI-H2087 = type: functional, cell-based;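 further: growth inhibition determined with a cell viability readout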
Description: SANGER: Inhibition of human NCI-H2087 cell growth in a cell viability assay.

NCI-H460 = type: functional, cell-based;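 further: cell viability assay scoring growth inhibition of human NCI-H460 cells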
Description: SANGER: Inhibition of human NCI-H460 cell growth in a cell viability assay.

NCI-H520 = type: functional, cell-based;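 further: growth inhibition of NCI-H520 cells, measured by a cell viability assay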
Description: SANGER: Inhibition of human NCI-H520 cell growth in a cell viability assay.

NCI-H522 = type: functional, cell-based;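 further: cell viability assay measuring growth inhibition of human NCI-H522 cells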
Description: SANGER: Inhibition of human NCI-H522 cell growth in a cell viability assay.

NCI-H661 = type: functional, cell-based;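 further: cell viability assay read-out, IC50 being the concentration that inhibits growth of the cells by half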
Description: SANGER: Inhibition of human NCI-H661 cell growth in a cell viability assay.

NY = type: functional, cell-based
Description: SANGER: Inhibition of human NY cell growth in a cell viability assay.

RCM-1 = type: functional, cell-based;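 further: growth inhibition of the RCM-1 line, determined with a cell viability readout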
Description: SANGER: Inhibition of human RCM-1 cell growth in a cell viability assay.

SK-MEL3 = type: functional, cell-based, SK-MEL-3;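 further: growth inhibition of human SK-MEL-3 cells, read out with a cell viability assay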
Description: SANGER: Inhibition of human SK-MEL-3 cell growth in a cell viability assay.

SK-N-AS = type: functional, cell-based;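 further: growth inhibition of human SK-N-AS cells, measured with a cell viability assay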
Description: SANGER: Inhibition of human SK-N-AS cell growth in a cell viability assay.

SW1417 = type: functional, cell-based;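 further: growth inhibition of human SW1417 cells, read out with a cell viability assay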
Description: SANGER: Inhibition of human SW1417 cell growth in a cell viability assay.

SW1710 = type: functional, cell-based;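 further: growth inhibition of SW1710 cells, determined with a cell viability assay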
Description: SANGER: Inhibition of human SW1710 cell growth in a cell viability assay.

SW1990 = type: functional, cell-based;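 further: cell growth inhibition determined with a viability assay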
Description: SANGER: Inhibition of human SW1990 cell growth in a cell viability assay.

SW-620 = type: functional, cell-based;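 further: growth inhibition of human SW-620 cells, measured by a cell viability assay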
Description: SANGER: Inhibition of human SW620 cell growth in a cell viability assay.

T98G = type: functional, cell-based;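 further: growth inhibition of T98G cells, read out by a cell viability assay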
Description: SANGER: Inhibition of human T98G cell growth in a cell viability assay.

647-V = type: functional, cell-based;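 further: growth inhibition of 647-V cells, read out with a cell viability assay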
Description: SANGER: Inhibition of human 647-V cell growth in a cell viability assay.

A-427 = type: functional, cell-based;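 further: growth inhibition of human A-427 cells, read out by a cell viability assay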
Description: SANGER: Inhibition of human A427 cell growth in a cell viability assay.

AGS = type: functional, cell-based;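 further: growth inhibition of AGS cells, determined with a cell viability assay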
Description: SANGER: Inhibition of human AGS cell growth in a cell viability assay.

AN3-CA = type: functional, cell-based;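 further: growth inhibition of human AN3-CA cells measured by a cell viability assay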
Description: SANGER: Inhibition of human AN3-CA cell growth in a cell viability assay.

U-118-MG = type: functional, cell-based
Description: SANGER: Inhibition of human U-118-MG cell growth in a cell viability assay.

WM-115 = type: functional, cell-based
Description: SANGER: Inhibition of human WM-115 cell growth in a cell viability assay.

COLO-678 = type: functional, cell-based
Description: SANGER: Inhibition of human COLO-678 cell growth in a cell viability assay.

COLO-679 = type: functional, cell-based
Description: SANGER: Inhibition of human COLO-679 cell growth in a cell viability assay.

COLO-680N = type: functional, cell-based;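 further: cell viability assay used to measure inhibition of COLO-680N cell growth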
Description: SANGER: Inhibition of human COLO-680N cell growth in a cell viability assay.

8505C = type: functional, cell-based
Description: SANGER: Inhibition of human 8505C cell growth in a cell viability assay.

Structure (SMILES): O=C1NC(=O)c2c1c(-c1ccccc1Cl)cc1[nH]c3ccc(O)cc3c21
- IC50 (COLO-792): > 2 µM
- IC50 (Ca9-22): > 2 µM
- IC50 (DOK): 1.24 µM
- IC50 (DoTc2-4510): > 2 µM
- IC50 (G-401): > 2 µM
- IC50 (HCC1395): > 2 µM
- IC50 (HCC1937): > 2 µM
- IC50 (HMV-2 cell line): > 2 µM
- IC50 (HSC-2): > 2 µM
- IC50 (HSC-3): 1.18 µM
- IC50 (HT-29): > 2 µM
- IC50 (IGR-1): > 2 µM
- IC50 (JEG-3): > 2 µM
- IC50 (KYSE-150 cell line): > 2 µM
- IC50 (MDA-MB-453): > 2 µM
- IC50 (MKN-1): > 2 µM
- IC50 (MeWo): > 2 µM
- IC50 (NCI-H1651): > 2 µM
- IC50 (NCI-H1693): > 2 µM
- IC50 (NCI-H1993): > 2 µM
- IC50 (NCI-H2087): > 2 µM
- IC50 (NCI-H460): > 2 µM
- IC50 (NCI-H520): > 2 µM
- IC50 (NCI-H522): > 2 µM
- IC50 (NCI-H661): > 2 µM
- IC50 (NY): > 2 µM
- IC50 (RCM-1): > 2 µM
- IC50 (SK-MEL3): 1.31 µM
- IC50 (SK-N-AS): 1.81 µM
- IC50 (SW1417): > 2 µM
- IC50 (SW1710): > 2 µM
- IC50 (SW1990): 1.18 µM
- IC50 (SW-620): > 2 µM
- IC50 (T98G): > 2 µM
- IC50 (647-V): > 2 µM
- IC50 (A-427): > 2 µM
- IC50 (AGS): > 2 µM
- IC50 (AN3-CA): > 2 µM
- IC50 (U-118-MG): > 2 µM
- IC50 (WM-115): > 2 µM
- IC50 (COLO-678): > 2 µM
- IC50 (COLO-679): > 2 µM
- IC50 (COLO-680N): > 2 µM

Structure (SMILES): O=C(NCCCNc1nc(Nc2cccc(NC(=O)N3CCCC3)c2)ncc1I)c1cccs1 [BX-795]
- IC50 (COLO-792): > 5 µM
- IC50 (Ca9-22): 2.13 µM
- IC50 (DOK): 4.36 µM
- IC50 (DoTc2-4510): > 5 µM
- IC50 (G-401): 2.56 µM
- IC50 (HCC1395): > 5 µM
- IC50 (HCC1937): > 5 µM
- IC50 (HMV-2 cell line): > 5 µM
- IC50 (HSC-2): > 5 µM
- IC50 (HSC-3): 1.44 µM
- IC50 (HT-29): > 5 µM
- IC50 (IGR-1): > 5 µM
- IC50 (JEG-3): > 5 µM
- IC50 (KYSE-150 cell line): 2.73 µM
- IC50 (MDA-MB-453): > 5 µM
- IC50 (MKN-1): > 5 µM
- IC50 (MeWo): > 5 µM
- IC50 (NCI-H1651): > 5 µM
- IC50 (NCI-H1693): > 5 µM
- IC50 (NCI-H1993): > 5 µM
- IC50 (NCI-H2087): > 5 µM
- IC50 (NCI-H460): 2.44 µM
- IC50 (NCI-H520): > 5 µM
- IC50 (NCI-H522): > 5 µM
- IC50 (NCI-H661): > 5 µM
- IC50 (NY): > 5 µM
- IC50 (RCM-1): > 5 µM
- IC50 (SK-MEL3): > 5 µM
- IC50 (SK-N-AS): > 5 µM
- IC50 (SW1417): > 5 µM
- IC50 (SW1710): 2.29 µM
- IC50 (SW1990): > 5 µM
- IC50 (SW-620): > 5 µM
- IC50 (T98G): 2.39 µM
- IC50 (647-V): > 5 µM
- IC50 (8505C): 3.8 µM
- IC50 (A-427): 1.74 µM
- IC50 (AGS): 2.56 µM
- IC50 (AN3-CA): 1.64 µM
- IC50 (U-118-MG): > 5 µM
- IC50 (WM-115): 3.88 µM
- IC50 (COLO-678): > 5 µM
- IC50 (COLO-679): > 5 µM
- IC50 (COLO-680N): > 5 µM

Structure (SMILES): CC1(C)CCC(c2ccc(Cl)cc2)=C(CN2CCN(c3ccc(C(=O)NS(=O)(=O)c4ccc(N[C@H](CCN5CCOCC5)CSc5ccccc5)c(S(=O)(=O)C(F)(F)F)c4)cc3)CC2)C1 [NAVITOCLAX]
- IC50 (COLO-792): 1.2 µM
- IC50 (Ca9-22): > 2 µM
- IC50 (DOK): > 2 µM
- IC50 (DoTc2-4510): > 2 µM
- IC50 (G-401): > 2 µM
- IC50 (HCC1395): > 2 µM
- IC50 (HCC1937): > 2 µM
- IC50 (HMV-2 cell line): > 2 µM
- IC50 (HSC-2): > 2 µM
- IC50 (HSC-3): 1.96 µM
- IC50 (HT-29): > 2 µM
- IC50 (IGR-1): > 2 µM
- IC50 (JEG-3): > 2 µM
- IC50 (KYSE-150 cell line): > 2 µM
- IC50 (MDA-MB-453): > 2 µM
- IC50 (MKN-1): > 2 µM
- IC50 (MeWo): > 2 µM
- IC50 (NCI-H1651): > 2 µM
- IC50 (NCI-H1693): > 2 µM
- IC50 (NCI-H1993): > 2 µM
- IC50 (NCI-H2087): > 2 µM
- IC50 (NCI-H460): > 2 µM
- IC50 (NCI-H520): > 2 µM
- IC50 (NCI-H522): > 2 µM
- IC50 (NCI-H661): > 2 µM
- IC50 (NY): > 2 µM
- IC50 (RCM-1): > 2 µM
- IC50 (SK-MEL3): > 2 µM
- IC50 (SK-N-AS): > 2 µM
- IC50 (SW1417): 0.554 µM
- IC50 (SW1710): > 2 µM
- IC50 (SW1990): > 2 µM
- IC50 (SW-620): > 2 µM
- IC50 (T98G): > 2 µM
- IC50 (647-V): > 2 µM
- IC50 (8505C): > 2 µM
- IC50 (A-427): 0.93 µM
- IC50 (AGS): > 2 µM
- IC50 (AN3-CA): > 2 µM
- IC50 (U-118-MG): > 2 µM
- IC50 (WM-115): 0.277 µM
- IC50 (COLO-678): > 2 µM
- IC50 (COLO-679): > 2 µM
- IC50 (COLO-680N): > 2 µM

Structure (SMILES): CS(=O)(=O)N1CCN(Cc2cc3nc(-c4cccc5[nH]ncc45)nc(N4CCOCC4)c3s2)CC1 [PICTILISIB]
- IC50 (COLO-792): > 4 µM
- IC50 (Ca9-22): > 4 µM
- IC50 (DOK): 0.302 µM
- IC50 (DoTc2-4510): > 4 µM
- IC50 (G-401): 1.62 µM
- IC50 (HCC1395): > 4 µM
- IC50 (HCC1937): > 4 µM
- IC50 (HSC-2): > 4 µM
- IC50 (HSC-3): 0.84 µM
- IC50 (HT-29): > 4 µM
- IC50 (IGR-1): > 4 µM
- IC50 (JEG-3): > 4 µM
- IC50 (KYSE-150 cell line): > 4 µM
- IC50 (MDA-MB-453): > 4 µM
- IC50 (MKN-1): > 4 µM
- IC50 (MeWo): 3.42 µM
- IC50 (NCI-H1651): > 4 µM
- IC50 (NCI-H1693): > 4 µM
- IC50 (NCI-H1993): > 4 µM
- IC50 (NCI-H2087): > 4 µM
- IC50 (NCI-H460): > 4 µM
- IC50 (NCI-H520): 1.09 µM
- IC50 (NCI-H522): > 4 µM
- IC50 (NCI-H661): > 4 µM
- IC50 (NY): > 4 µM
- IC50 (RCM-1): > 4 µM
- IC50 (SK-MEL3): > 4 µM
- IC50 (SK-N-AS): > 4 µM
- IC50 (SW1417): > 4 µM
- IC50 (SW1710): 1.04 µM
- IC50 (SW1990): > 4 µM
- IC50 (SW-620): > 4 µM
- IC50 (T98G): 1.99 µM
- IC50 (647-V): > 4 µM
- IC50 (8505C): > 4 µM
- IC50 (A-427): > 4 µM
- IC50 (AGS): 3.62 µM
- IC50 (AN3-CA): 0.34 µM
- IC50 (U-118-MG): > 4 µM
- IC50 (WM-115): 1.07 µM
- IC50 (COLO-678): > 4 µM
- IC50 (COLO-679): > 4 µM
- IC50 (COLO-680N): > 4 µM
